ChEMBL document CHEMBL1131585, “Novel orally active growth hormone secretagogues” (J Med Chem, 1998)
Where a SMILES comes first, the peptide text is derived from it. [ ]: non-standard residue; d: D form. d2Nal = N[C@H](Cc1ccc2ccccc2c1)C(=O)O; Aib = CC(C)(N)C(=O)O

Columns and labels:
[1] = species on record: Rattus norvegicus; assay: Compound was tested against the effect of N-acetyl-Tyr-D-Arg(1-29)GHRH-NH2 on the release of growth hormone from pituitary cells in rat; format: functional, cell-based; details: Pituitary gland cell
[2] = species on record: Rattus norvegicus; assay: Compound was tested against the effect of L-692400 on the release of growth hormone from pituitary cells in rat; format: functional, cell-based; details: Pituitary gland cell
[3] = system: Sus scrofa; assay: Compound was tested for efficacy against GH release upon iv administration in swine; format: functional
[4] = species on record: Rattus norvegicus; assay: Compound was tested against the effect of D-Lys3-GHRP-6 on the release of growth hormone from pituitary cells in rat; format: functional, cell-based; details: Pituitary gland cell
[5] = species on record: Rattus norvegicus; assay: Compound was tested against the effect of substance P antagonist on the release of growth hormone from pituitary cells in rat; format: functional, cell-based; details: Pituitary gland cell
[6] = system: Sus scrofa; assay: Compound was tested for potency against GH release upon iv administration in swine; format: functional
[7] = target: Growth hormone secretagogue receptor type 1 (Rattus norvegicus) (UniProt O08725); assay: (§1) Tested for GH-releasing property using classical rat pituitary cell assay; format: functional, cell-based; details: Pituitary gland cell
Chain of Growth hormone secretagogue receptor type 1 (Rattus norvegicus) (O08725 whole entry): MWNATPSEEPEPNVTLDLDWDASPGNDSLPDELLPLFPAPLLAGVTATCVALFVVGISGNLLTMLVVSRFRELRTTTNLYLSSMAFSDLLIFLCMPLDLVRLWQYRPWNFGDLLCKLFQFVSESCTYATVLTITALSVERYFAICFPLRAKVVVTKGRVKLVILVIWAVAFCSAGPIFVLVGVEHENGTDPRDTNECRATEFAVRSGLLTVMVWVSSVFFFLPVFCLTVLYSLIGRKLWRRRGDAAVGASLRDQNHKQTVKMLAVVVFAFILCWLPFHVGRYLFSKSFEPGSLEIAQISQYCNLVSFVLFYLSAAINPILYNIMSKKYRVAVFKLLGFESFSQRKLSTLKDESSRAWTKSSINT

[8] = target: Growth hormone secretagogue receptor type 1 (Rattus norvegicus, UniProt O08725); assay: as §1; format: functional, cell-based, Pituitary gland cell
Chain of Growth hormone secretagogue receptor type 1 (O08725 whole entry): as above

[9] = Compound was tested for maximum concentration in blood after 10 mg/kg administration (Po) in Beagle dogs; nmol/L maximum blood concentration; details: dog
[10] = system: Sus scrofa; assay: Compound was tested for efficacy against GH release iv administration in swine; format: functional
[11] = Oral bioavailability in dog (Beagle); format: ADME, organism-based, Canis lupus familiaris; details: in vivo; for bioavailability: beagle
[12] = Oral bioavailability in dog (Beagle) (dose 2.5 mg/kg); format: ADME, organism-based, Canis lupus familiaris; details: in vivo
[13] = system: Sus scrofa; assay: Compound was tested for potency against GH release iv administration in swine; format: functional
[14] = Compound was tested for maximum concentration in blood after 2.5 mg/kg administration (Po) in Beagle dogs; nmol/L maximum blood concentration; details: dog
[15] = Compound was tested for oral bioavailability after 10 mg/kg administration (Po) in Beagle dogs; F % Oral Bioavailability; format: ADME, organism-based, Canis lupus familiaris; details: dog, in vivo
[16] = system: Sus scrofa; assay: Tested for in vivo activity against GH release after iv administration in swine
[17] = Compound was tested for oral bioavailability after 10 mg/kg administration (Po) in Beagle dogs; fpo % Oral Bioavailability; format: ADME, organism-based, Canis lupus familiaris; details: dog, in vivo
[18] = Compound was tested for maximum blood concentration after 10 mg/kg administration (Po) in Beagle dogs; nM/L maximum blood concentration; format: ADME, organism-based, Canis lupus familiaris; parameters: route oral, dose 10 mg/kg; details: dog
[19] = system: Canis familiaris; assay: Compound was tested Growth Hormone(GH) release after 10 mg/kg administration (Po) in Beagle dogs; format: functional, organism-based; parameters: dose 10 mg/kg; details: Canis lupus familiaris
[20] = Compound was tested for oral bioavailability after 0.5 mg/kg administration (Po) in Beagle dogs; fpo % Oral Bioavailability; format: ADME, organism-based, Canis lupus familiaris; details: dog, in vivo
[21] = system: Canis familiaris; assay: Compound was tested Growth Hormone(GH) release after 2.5 mg/kg administration (Po) in Beagle dogs; format: functional, organism-based; parameters: dose 2.5 mg/kg; details: Canis lupus familiaris
[22] = Compound was tested for maximum blood concentration after 0.5 mg/kg administration (Po) in Beagle dogs; nM/L maximum blood concentration; format: ADME, organism-based, Canis lupus familiaris; parameters: route oral, dose 0.5 mg/kg; details: dog
[23] = system: Canis familiaris; assay: Compound was tested Growth Hormone(GH) release after 0.5 mg/kg administration (Po) in Beagle dogs; format: functional, organism-based; parameters: dose 0.5 mg/kg; details: Canis lupus familiaris
[24] = Compound was tested for maximum blood concentration after 2.5 mg/kg administration (Po) in Beagle dogs; nM/L maximum blood concentration; format: ADME, organism-based, Canis lupus familiaris; parameters: route oral, dose 2.5 mg/kg; details: dog

SMILES	Emax [7]	EC50 [8]	bioavailability [11]	Cmax [GH] [16]	further results
C[C@H](NC(=O)C(Cc1c[nH]c2ccccc12)NC(=O)[C@@H](N)Cc1c[nH]cn1)C(=O)N[C@@H](Cc1c[nH]c2ccccc12)C(=O)NC(Cc1ccccc1)C(=O)N[C@@H](CCCCN)C(N)=O (single isomer, unassigned)	100%				IC50 [1]: > 10000 nM; IC50 [2]: 10000 nM; Emax [3]: 74 ng/mL; IC50 [4]: 8000 nM; IC50 [5]: 38 nM; ED50 [6]: 0.0039 µmol/kg
CNC(=O)[C@@H](Cc1ccccc1)N(C)C(=O)[C@@H](Cc1ccc2ccccc2c1)N(C)C(=O)/C=C/CC(C)(C)N [TABIMORELIN]	110%	18 nM			
C[C@@H](O)CNC(=O)[C@@H](Cc1ccccc1)N(C)C(=O)[C@@H](Cc1ccc2ccccc2c1)N(C)C(=O)/C=C/CC(C)(C)N (stereo in doubt; 7b) [listing 1 of 2 here]		8.9 nM			IC50 [1]: > 10000 nM; Cmax [9]: 2320 nM; IC50 [2]: 11000 nM; IC50 [4]: 8000 nM; Emax [10]: 96 ng/mL; F [11]: 25%; IC50 [5]: 140 nM; bioavailability [12]: 21%; ED50 [13]: 0.031 µmol/kg; Cmax [14]: 260 nM; bioavailability [15]: 41%
CNC(=O)[C@@H](Cc1ccc(F)c(F)c1)N(C)C(=O)[C@@H](Cc1ccc2ccccc2c1)N(C)C(=O)/C=C/CC(C)(C)N	85%	17 nM	54%	6 ng/mL	
CNC(=O)[C@@H](Cc1ccccc1)N(C)C(=O)[C@@H](COCc1ccccc1)N(C)C(=O)/C=C/CC(C)(C)N	125%	5 nM	11%	0.4 ng/mL	
CN(C(=O)/C=C/CC(C)(C)N)[C@H](Cc1cccc2ccccc12)C(=O)N(C)[C@H](Cc1ccccc1)C(=O)NCC1CCCO1 (stereo partly drawn)	110%	21 nM			
CNC(=O)[C@@H](Cc1ccccc1)N(C)C(=O)[C@@H](Cc1csc2ccccc12)N(C)C(=O)/C=C/CC(C)(C)N	80%	35 nM			
C[C@@H](O)CNC(=O)[C@@H](Cc1ccccc1)N(C)C(=O)[C@@H](Cc1ccc2ccccc2c1)N(C)C(=O)/C=C/CC(C)(C)N (stereo in doubt; 7o) [listing 1 of 2 here]		9 nM			F [11]: 0%
CNC(=O)[C@@H](Cc1ccc(I)cc1)N(C)C(=O)[C@@H](Cc1ccc2ccccc2c1)N(C)C(=O)/C=C/CC(C)(C)N	110%	20 nM	26%	0.4 ng/mL	
CC(C)(N)C(=O)N[C@@H](Cc1c[nH]cn1)C(=O)N[C@H](Cc1ccc2ccccc2c1)C(=O)N[C@H](Cc1ccccc1)C(=O)N[C@@H](CCCCN)C(N)=O [IPAMORELIN] (H-[Aib]H[d2Nal][dF]K-NH2)					Emax [10]: 65 ng/mL; ED50 [13]: 0.0023 µmol/kg
CN(C(=O)/C=C/CC(C)(C)N)[C@H](Cc1ccc2ccccc2c1)C(=O)N(C)[C@H](Cc1ccccc1)C(=O)NCC1CCCO1 (stereo partly drawn)	100%	16 nM	17%	9 ng/mL	
CNC(=O)[C@@H](Cc1ccc(F)cc1)N(C)C(=O)[C@@H](Cc1ccc2ccccc2c1)N(C)C(=O)/C=C/CC(C)(C)N	90%	8 nM	49%	30 ng/mL	bioavailability [17]: 138%; IC50 [1]: > 10000 nM; Cmax [18]: 3030 nM; IC50 [2]: 14000 nM; Cmax [GH] [19]: 12 ng/mL; bioavailability [20]: 53%; Cmax [GH] [21]: 4.5 ng/mL; IC50 [4]: 9000 nM; Emax [10]: 86 ng/mL; Cmax [22]: 99 nM; IC50 [5]: 49 nM; bioavailability [12]: 55%; Cmax [GH] [23]: 2.7 ng/mL; ED50 [13]: 0.129 µmol/kg; Cmax [24]: 247 nM
C[C@@H](O)CNC(=O)[C@@H](Cc1ccccc1)N(C)C(=O)[C@@H](Cc1ccc2ccccc2c1)N(C)C(=O)/C=C/CC(C)(C)N (stereo in doubt; 7b) [listing 2 of 2 here]	130%			26 ng/mL	Cmax [GH] [19]: 42.5 ng/mL; Cmax [GH] [21]: 6.6 ng/mL; Cmax [GH] [23]: 1.8 ng/mL
CNC(=O)[C@@H](Cc1cccs1)N(C)C(=O)[C@@H](Cc1ccc2ccccc2c1)N(C)C(=O)/C=C/CC(C)(C)N	110%	2 nM	15%	55 ng/mL	
C[C@H](O)CNC(=O)[C@@H](Cc1ccc(F)c(F)c1)N(C)C(=O)[C@@H](Cc1ccc2ccccc2c1)N(C)C(=O)/C=C/CC(C)(C)N	100%	5 nM		5 ng/mL	
C[C@@H](O)CNC(=O)[C@@H](Cc1ccccc1)N(C)C(=O)[C@@H](Cc1ccc2ccccc2c1)N(C)C(=O)/C=C/CC(C)(C)N (stereo in doubt; 7o) [listing 2 of 2 here]	105%			9 ng/mL	
CNC(=O)[C@@H](Cc1ccccc1)N(C)C(=O)[C@@H](Cc1cccc2ccccc12)N(C)C(=O)/C=C/CC(C)(C)N	115%	24 nM		12 ng/mL	
C[C@H](O)CNC(=O)[C@@H](Cc1cccs1)N(C)C(=O)[C@@H](Cc1ccc2ccccc2c1)N(C)C(=O)/C=C/CC(C)(C)N	120%	45 nM			
CNC(=O)[C@@H](Cc1ccccc1)N(C)C(=O)[C@@H](Cc1ccc(-c2ccccc2)cc1)N(C)C(=O)/C=C/CC(C)(C)N	120%	3 nM	0%		
CCNC(=O)[C@@H](Cc1ccccc1)N(C)C(=O)[C@@H](Cc1ccc2ccccc2c1)N(C)C(=O)/C=C/CC(C)(C)N	105%	13 nM	14%		
CN(C(=O)/C=C/CC(C)(C)N)[C@H](Cc1ccc2ccccc2c1)C(=O)N(C)[C@H](Cc1ccccc1)C(=O)NCC1CC1	105%	1.8 nM	24%	14 ng/mL	
